Data reported in ChEMBL document CHEMBL1201862, “PubChem BioAssay data set” (2004).
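All cell lines were grown in 96-well plates and treated with compound for 48 hours. GI50 = concentration required for 50% inhibition of growth.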 Active and inactive are the calls of the source. Cut-off read from the data, not from the text of the source: active = GI50 up to about 1.1 µM and inactive = higher.

Legend:
Assay in all cases: DTP human tumour cell line panel, 48 h
[1] = test system: KM-20L2
[2] = test system: M19-MEL
[3] = test system: DMS-114
[4] = test system: HOP-18
[5] = test system: SNB-78
[6] = test system: DLD-1
[7] = test system: DMS-273
[8] = test system: XF498
[9] = test system: RXF 631

Structure (SMILES)	GI50 [1]	GI50 [2]	GI50 [3]	GI50 [4]	GI50 [5]	GI50 [6]	GI50 [7]	GI50 [8]	GI50 [9]
CSc1nc(NC2OC(COC(C)=O)C(OC(C)=O)C(OC(C)=O)C2OC(C)=O)c(-c2csc(N)n2)c(=O)n1C (configuration not stated)	> 100 µM (inactive)	47.6 µM (inactive)	34.8 µM (inactive)	16.6 µM (inactive)	22.4 µM (inactive)	44.8 µM (inactive)			
CC1CCSC(N(C(=O)N(C)c2ccccc2)c2ccccc2)=N1 (configuration not stated)	> 100 µM (inactive)	> 100 µM (inactive)	> 100 µM (inactive)		> 100 µM (inactive)	> 100 µM (inactive)	> 100 µM (inactive)	> 100 µM (inactive)	
COC(=O)C12C3C4C5C3(C#N)C1C5(C(=O)OC)C42C(=O)N(C(C)C)C(C)C (configuration not stated)	> 100 µM (inactive)	> 100 µM (inactive)	> 100 µM (inactive)	> 100 µM (inactive)	> 100 µM (inactive)	> 50.2 µM (inactive)	> 42.5 µM (inactive)	> 63.7 µM (inactive)	> 95.5 µM (inactive)
COc1ccc(C2CC(=O)c3c(O)cc(O)cc3O2)cc1O (configuration not stated)	> 100 µM (inactive)	> 100 µM (inactive)	> 100 µM (inactive)		> 100 µM (inactive)	> 100 µM (inactive)	> 100 µM (inactive)	> 100 µM (inactive)	> 100 µM (inactive)
O=c1c(-c2ccccc2)c(O)nc2[nH]c3ccccc3n12	> 100 µM (inactive)	> 100 µM (inactive)	> 100 µM (inactive)	> 100 µM (inactive)	> 100 µM (inactive)	> 100 µM (inactive)	> 100 µM (inactive)	> 100 µM (inactive)	> 100 µM (inactive)
NC(=O)NC1C(C(=O)O)N(Cc2ccccc2)C(=O)N1Cc1ccccc1 (configuration not stated)	> 100 µM (inactive)	> 100 µM (inactive)	> 100 µM (inactive)		> 100 µM (inactive)	> 100 µM (inactive)		> 100 µM (inactive)	
COc1ccc2c(c1)CCc1c-2nc2cc3c(cc2c1O)OCO3	> 100 µM (inactive)	> 100 µM (inactive)		> 100 µM (inactive)	> 100 µM (inactive)	> 100 µM (inactive)	> 100 µM (inactive)	> 100 µM (inactive)	
COC(=O)CSc1nnc(-c2ccc(O)c([N+](=O)[O-])c2)[nH]1	> 100 µM (inactive)					> 100 µM (inactive)	> 100 µM (inactive)	> 100 µM (inactive)	> 100 µM (inactive)
COc1cc2c(c(OC)c1OC)-c1ccc(OC)c(=O)cc1C(NC(=O)c1ccc(N=[N+]=[N-])cc1)CC2 (configuration not stated)	0.0188 µM (active)	0.0581 µM (active)	0.0257 µM (active)	> 84.9 µM (inactive)	0.03 µM (active)	0.0413 µM (active)	0.0244 µM (active)		
CN(C)[C@@H]1C(O)=C(C(=O)NCNc2nc3[nH]nnc3c(=O)[nH]2)C(=O)[C@@]2(O)C(O)=C3C(=O)c4c(O)cccc4[C@@](C)(O)[C@H]3C[C@@H]12	16.2 µM (inactive)	2.24 µM (inactive)	1.52 µM (inactive)	2.19 µM (inactive)	1.81 µM (inactive)	29.7 µM (inactive)	1.29 µM (inactive)	1.26 µM (inactive)	0.836 µM (active)
Fc1cccc2cc3ccc4cccc5ccc(c12)c3c45	> 100 µM (inactive)	> 100 µM (inactive)	> 100 µM (inactive)	1.72 µM (inactive)		0.509 µM (active)	0.296 µM (active)	> 100 µM (inactive)	> 100 µM (inactive)
CN(C)C(=S)/N=c1\ss/c(=N\C(=S)N(C)C)n1-c1ccc(Cl)c(Cl)c1	> 100 µM (inactive)	> 100 µM (inactive)	> 100 µM (inactive)		67.1 µM (inactive)		> 100 µM (inactive)		
CCN(CC)CCNc1ccc2nnn3c4ccccc4c(=O)c1c23	3.32 µM (inactive)	4.86 µM (inactive)	6.55 µM (inactive)		> 10 µM (inactive)	4.19 µM (inactive)	3.66 µM (inactive)	3.49 µM (inactive)	2.88 µM (inactive)
COC(=O)C(=O)C(C#N)c1cccc2ccccc12 (configuration not stated)	> 100 µM (inactive)	> 100 µM (inactive)	> 100 µM (inactive)	> 100 µM (inactive)	> 100 µM (inactive)	> 100 µM (inactive)	> 100 µM (inactive)	> 100 µM (inactive)	
